Converted amounts (≈) assume the structure as drawn.
Experiments:
K562 = experiment: Cytotoxicity against human K562 cells by colorimetric assay; type: functional, cell-based
P388 = experiment: Cytotoxicity against mouse P388 cells; type: functional, cell-based; conditions: Mus musculus, P388; read-out: IC50
HeLa S3 = experiment: Cytotoxicity against human HeLa S3 cells; type: functional, cell-based; conditions: Homo sapiens, HeLa S3; read-out: IC50
DU-145 = experiment: Cytotoxicity against human DU-145 cells assessed as reduction in cell viability incubated for 48 hrs by MTS assay; type: functional, cell-based; conditions: DU-145, time 48 hrs
JIMT-1 = experiment: Cytotoxicity against human JIMT-1 cells assessed as reduction in cell viability incubated for 48 hrs by MTS assay; type: functional, cell-based; conditions: JIMT-1, time 48 hrs
MIA PaCa-2 = experiment: Cytotoxicity against human MIA PaCa-2 cells assessed as reduction in cell viability incubated for 48 hrs by MTS assay; type: functional, cell-based; conditions: MIA PaCa-2, time 48 hrs
PC-3 = experiment: Cytotoxicity against human PC-3 cells assessed as reduction in cell viability incubated for 48 hrs by MTS assay; type: functional, cell-based; conditions: PC-3, time 48 hrs
BT-474 = experiment: Cytotoxicity against human BT-474 cells assessed as reduction in cell viability incubated for 48 hrs by MTS assay; type: functional, cell-based; conditions: BT-474, time 48 hrs
KB = experiment: Cytotoxicity against human KB cells assessed as inhibition of cell growth by measuring effective dose; type: functional; conditions: read-out: ED50 (the source's name)

## CCCCCCCCCCCCCCCCCCOCC(COC(=O)NCCCO[C@@H]1O[C@H](CO)[C@H](O)[C@H](O)[C@H]1O)OCC (some centres undefined)
K562
  IC50: 17 µM

## CO[C@@H]1[C@H](O[C@@H]2CO[C@@H](O[C@@H]3[C@@H](O)[C@H](O)CO[C@H]3N3C(=O)/C(=C(O)/C=C/C=C/C=C/C=C/C=C(Cl)/C=C/C=C/C=C/[C@@H]4O[C@H](C)C[C@@H]4Cl)C(=O)[C@@H]3CC(N)=O)[C@@H](O)[C@@H]2O)O[C@H](C)[C@H]1O
P388
  IC50: 0.2 µg/mL (≈ 0.213 µM)

## CO[C@@H]1[C@H](O[C@@H]2CO[C@@H](O[C@@H]3[C@@H](O)[C@H](O)CO[C@H]3N3C(=O)/C(=C(O)/C=C/C=C/C=C/C=C/C=C(Cl)/C=C/C=C/[C@@H]4O[C@H](C)C[C@@H]4Cl)C(=O)[C@@H]3CC(N)=O)[C@@H](O)[C@@H]2O)O[C@H](C)[C@H]1O
P388
  IC50: 0.05 µg/mL (≈ 0.0547 µM)

## CCCCCCCCCCCCCCCCCCOCC(CO[C@@H]1O[C@H](CO)[C@H](O)[C@H](O)[C@H]1O)OCC (some centres undefined)
K562
  IC50: 2.5 µM

## CO[C@@H]1[C@@H](O)[C@@H](OC)[C@H](O[C@@H]2[C@@H](OC)[C@H](C)O[C@@H](O[C@@H]3C[C@H]4O[C@@](O)(C3)[C@H](C)C(=O)O[C@@H](/C=C/C=C/Br)C/C(C)=C/C(=O)C4(C)C)[C@@H]2OC)O[C@H]1C
HeLa S3
  IC50: 0.17 µg/mL (≈ 0.211 µM)

## CCCCCCCCCCCCCCCCCCOCC(COC(=O)NCCCO[C@@H]1O[C@H](CO)[C@@H](O[C@@H]2O[C@H](CO)[C@H](O)[C@H](O)[C@H]2O)[C@H](O)[C@H]1O)OCC (some centres undefined)
K562
  IC50: 7 µM

## CO[C@@H]1[C@H](O[C@@H]2CO[C@@H](O[C@@H]3[C@@H](O)[C@H](O)CO[C@H]3N3C(=O)/C(=C(O)/C=C/C=C/C=C/C=C/C=C(Cl)/C=C/C=C/[C@H]4O[C@H](C)C[C@@H]4Cl)C(=O)[C@@H]3CC(N)=O)[C@@H](O)[C@@H]2O)O[C@H](C)[C@H]1O
P388
  IC50: 0.2 µg/mL (≈ 0.219 µM)

## C[C@@H]1C[C@H](Cl)[C@H](/C=C/C=C/C=C/C(Cl)=C/C=C/C=C/C=C/C=C/C(O)=C2\C(=O)[C@H](CC(N)=O)N([C@@H]3OC[C@@H](O)[C@H](O)[C@H]3O[C@@H]3OC[C@@H](O[C@@H]4O[C@H](C)[C@@H](O)[C@@H]4O)[C@@H](O)[C@@H]3O)C2=O)O1
P388
  IC50: > 5 µg/mL

## CCCCCCCCCCCCCCCCOC[C@H](CN)O[C@@H]1O[C@@H](C)[C@H](O)[C@@H](O)[C@H]1O
DU-145
  CC50: 8.2 µM
JIMT-1
  CC50: 5.5 µM
MIA PaCa-2
  CC50: 8.5 µM
PC-3
  CC50: 11 µM

## CCCCCCCCCCCCCCCCCCOCC(CO[C@H]1O[C@H](CO)[C@@H](O)[C@H](O)[C@@H]1O)OCC (some centres undefined)
K562
  IC50: 3 µM

## C[C@@H]1C[C@H](Cl)[C@@H](/C(Cl)=C/C=C/C(Cl)=C/C=C/C=C/C=C/C=C/C(O)=C2\C(=O)[C@H](CC(N)=O)N([C@@H]3OC[C@@H](O)[C@H](O)[C@H]3O[C@@H]3OC[C@@H](O[C@@H]4O[C@H](C)[C@@H](O)[C@@H]4O)[C@@H](O)[C@@H]3O)C2=O)O1
P388
  IC50: 0.2 µg/mL (≈ 0.214 µM)

## CCCCCCCCCCCCCCCCOC[C@H](CO[C@@H]1O[C@@H](CO)[C@H](O)[C@@H](O)[C@@H]1O)OC
DU-145
  CC50: 12.5 µM
JIMT-1
  CC50: 6.5 µM
MIA PaCa-2
  CC50: 7.5 µM
PC-3
  CC50: 12.5 µM
BT-474
  CC50: 11 µM

## CCCCCCCCCCCCCCCCCCOCC(COC(=O)NCCCO[C@H]1O[C@H](CO)[C@@H](O)[C@H](O)[C@@H]1O)OCC (some centres undefined)
K562
  IC50: 18 µM

## CO[C@@H]1[C@H](O[C@@H]2CO[C@@H](O[C@@H]3[C@@H](O)[C@H](O)CO[C@H]3N3C(=O)/C(=C(O)/C=C/C=C/C=C/C=C/C=C(Cl)/C=C/C=C(\Cl)[C@H]4O[C@H](C)C[C@@H]4Cl)C(=O)[C@@H]3CC(N)=O)[C@@H](O)[C@@H]2O)O[C@H](C)[C@H]1O
P388
  IC50: 0.2 µg/mL (≈ 0.211 µM)

## CCCCCCCCCCCCCCCCCCOCC(CO[C@@H]1O[C@H](CO)[C@@H](O[C@@H]2O[C@H](CO)[C@H](O)[C@H](O)[C@H]2O)[C@H](O)[C@H]1O)OCC (some centres undefined)
K562
  IC50: 18 µM

## C/C=C(\C)C(=O)O[C@H]1[C@H](O)[C@@H](O)[C@H](O[C@@H]2[C@H]3OC(=O)CCCCCCCCC[C@H](CCCCC)O[C@@H]4O[C@H](C)[C@@H](O)[C@H](O)[C@H]4O[C@@H]4O[C@H](COC(=O)[C@@H](C)[C@H](C)O)[C@@H](O)[C@H](O)[C@H]4O[C@H](O[C@H]2C)[C@@H]3OC(=O)C(C)C)O[C@@H]1C [ORIZABIN XIII]
KB
  EC50: 1 µg/mL (≈ 0.903 µM)

## C/C=C(\C)C(=O)O[C@H]1[C@H](O)[C@@H](O)[C@H](O[C@@H]2[C@H]3OC(=O)CCCCCCCCC[C@H](CCCCC)O[C@@H]4O[C@H](C)[C@@H](O)[C@H](O)[C@H]4O[C@@H]4O[C@H](COC(=O)[C@H](C)[C@@H](C)O)[C@@H](O)[C@H](O)[C@H]4O[C@H](O[C@H]2C)[C@@H]3OC(=O)C(C)C)O[C@@H]1C [ORIZABIN XII]
KB
  EC50: 1 µg/mL (≈ 0.903 µM)

## C/C=C(\C)C(=O)O[C@H]1[C@H](O)[C@@H](O)[C@H](O[C@@H]2[C@H]3OC(=O)CCCCCCCCC[C@H](CCCCC)O[C@@H]4O[C@H](C)[C@@H](O)[C@H](O)[C@H]4O[C@@H]4O[C@H](COC(=O)[C@@H](C)CC)[C@@H](O)[C@H](O)[C@H]4O[C@H](O[C@H]2C)[C@@H]3OC(=O)[C@H](C)[C@@H](C)O)O[C@@H]1C [ORIZABIN XIV]
KB
  EC50: 1 µg/mL (≈ 0.892 µM)

## CCCCC[C@H]1CCCCCCCCCC(=O)O[C@@H]2[C@@H](O[C@@H]3O[C@H](C)[C@@H](OC(=O)[C@@H](C)CC)[C@H](O)[C@H]3O)[C@H](C)O[C@@H](O[C@H]3[C@H](O[C@H]4[C@H](O1)O[C@H](C)[C@@H](O)[C@@H]4O)O[C@H](COC(=O)[C@@H](C)CC)[C@@H](O)[C@@H]3O)[C@@H]2OC(=O)[C@@H](C)[C@H](C)O [ORIZABIN XIX]
KB
  EC50: 1 µg/mL (≈ 0.89 µM)

## C/C=C(\C)C(=O)O[C@H]1[C@H](O)[C@@H](O)[C@H](O[C@@H]2[C@H]3OC(=O)CCCCCCCCC[C@H](CCCCC)O[C@@H]4O[C@H](C)[C@@H](O)[C@H](O)[C@H]4O[C@@H]4O[C@H](COC(=O)C(C)C)[C@@H](O)[C@H](O)[C@H]4O[C@H](O[C@H]2C)[C@@H]3OC(=O)[C@@H](C)[C@H](C)O)O[C@@H]1C [ORIZABIN XI]
KB
  EC50: 1 µg/mL (≈ 0.903 µM)

## CCCCC[C@H]1CCCCCCCCCC(=O)O[C@@H]2[C@@H](O[C@@H]3O[C@H](C)[C@@H](OC(=O)[C@@H](C)CC)[C@H](O)[C@H]3O)[C@H](C)O[C@@H](O[C@H]3[C@H](O[C@H]4[C@H](O1)O[C@H](C)[C@@H](O)[C@@H]4O)O[C@H](COC(=O)[C@@H](C)CC)[C@@H](O)[C@@H]3O)[C@@H]2OC(=O)[C@H](C)[C@@H](C)O [ORIZABIN XVIII]
KB
  EC50: 1 µg/mL (≈ 0.89 µM)

## C/C=C(\C)C(=O)O[C@H]1[C@H](O)[C@@H](O)[C@H](O[C@@H]2[C@H]3OC(=O)CCCCCCCCC[C@H](CCCCC)O[C@@H]4O[C@H](C)[C@@H](O)[C@H](O)[C@H]4O[C@@H]4O[C@H](COC(=O)[C@@H](C)[C@H](C)O)[C@@H](O)[C@H](O)[C@H]4O[C@H](O[C@H]2C)[C@@H]3OC(=O)[C@@H](C)CC)O[C@@H]1C [ORIZABIN XVII]
KB
  EC50: 1 µg/mL (≈ 0.892 µM)

## C/C=C(\C)C(=O)O[C@H]1[C@H](O)[C@@H](O)[C@H](O[C@@H]2[C@H]3OC(=O)CCCCCCCCC[C@H](CCCCC)O[C@@H]4O[C@H](C)[C@@H](O)[C@H](O)[C@H]4O[C@@H]4O[C@H](COC(=O)[C@H](C)[C@@H](C)O)[C@@H](O)[C@H](O)[C@H]4O[C@H](O[C@H]2C)[C@@H]3OC(=O)[C@@H](C)CC)O[C@@H]1C [ORIZABIN XVI]
KB
  EC50: 1 µg/mL (≈ 0.892 µM)

## C/C=C(\C)C(=O)O[C@H]1[C@H](O)[C@@H](O)[C@H](O[C@@H]2[C@H]3OC(=O)CCCCCCCCC[C@H](CCCCC)O[C@@H]4O[C@H](C)[C@@H](O)[C@H](O)[C@H]4O[C@@H]4O[C@H](COC(=O)[C@@H](C)CC)[C@@H](O)[C@H](O)[C@H]4O[C@H](O[C@H]2C)[C@@H]3OC(=O)[C@@H](C)[C@H](C)O)O[C@@H]1C [ORIZABIN XV]
KB
  EC50: 1 µg/mL (≈ 0.892 µM)

## CCCCC[C@H]1CCCCCCCCCC(=O)O[C@@H]2[C@@H](O[C@@H]3O[C@H](C)[C@@H](OC(=O)[C@@H](C)CC)[C@H](O)[C@H]3O)[C@H](C)O[C@@H](O[C@H]3[C@H](O[C@H]4[C@H](O1)O[C@H](C)[C@@H](O)[C@@H]4O)O[C@H](COC(=O)[C@@H](C)[C@H](C)O)[C@@H](O)[C@@H]3O)[C@@H]2OC(=O)[C@@H](C)CC [ORIZABIN XXI]
KB
  EC50: 1 µg/mL (≈ 0.89 µM)

## CCCCC[C@H]1CCCCCCCCCC(=O)O[C@@H]2[C@@H](O[C@@H]3O[C@H](C)[C@@H](OC(=O)[C@@H](C)CC)[C@H](O)[C@H]3O)[C@H](C)O[C@@H](O[C@H]3[C@H](O[C@H]4[C@H](O1)O[C@H](C)[C@@H](O)[C@@H]4O)O[C@H](COC(=O)[C@H](C)[C@@H](C)O)[C@@H](O)[C@@H]3O)[C@@H]2OC(=O)[C@@H](C)CC [ORIZABIN XX]
KB
  EC50: 1 µg/mL (≈ 0.89 µM)

## C/C=C(\C)C(=O)O[C@H]1[C@H](O)[C@@H](O)[C@H](O[C@@H]2[C@H]3OC(=O)CCCCCCCCC[C@H](CCCCC)O[C@@H]4O[C@H](C)[C@@H](O)[C@H](O)[C@H]4O[C@@H]4O[C@H](COC(=O)C(C)C)[C@@H](O)[C@H](O)[C@H]4O[C@H](O[C@H]2C)[C@@H]3OC(=O)[C@H](C)[C@@H](C)O)O[C@@H]1C [ORIZABIN X]
KB
  EC50: 1 µg/mL (≈ 0.903 µM)

Source: ChEMBL document CHEMBL5260828, “Amphiphilic glycoconjugates as potential anti-cancer chemotherapeutics” (Eur J Med Chem, 2018)
